Where two headings read alike, the source gives them in different places.
Legend:
mouse model of MS = experiment: Mouse model of MS, Example I; format: in vivo, mice; settings: versus diet lacking phytoestrogen
[1] = system: experimental autoimmune encephalomyelitis (EAE); settings: earlier published studies, cited from earlier work
[2] = versus the original isoflavones; cited from earlier work

| Molecule | disease severity (mouse model of MS) | EAE disease [1] | EAE disease ([1]; listed as equol) | estrogenic activity [2] |
| --- | --- | --- | --- | --- |
| Oc1ccc([C@H]2COc3cc(O)ccc3C2)cc1 [S-equol] | mimic some of the disease protective function | sufficient to ameliorate EAE | protect | significantly higher estrogenic activity |
| Parabacteroides distasonis |  | sufficient to ameliorate EAE |  |  |

Reference: patent US20240091279A1, “COMBINATION THERAPY FOR INFLAMMATORY DISEASES” (University of lowa Research Foundation, priority 2022, published 2024)
